# Laboratory results published in ChEMBL document CHEMBL5528047, “A Potent SOS1 PROTAC Degrader with Synergistic Efficacy in Combination with KRASG12C Inhibitor” (J Med Chem, 2024).
# The source made the active and inactive calls. The calls are words filed in the database; no cut-off is given here.
# How the values were obtained:
# [1] = tested on: NCI-H358; assay: Inhibition of ERK phosphorylation in human NCI-H358 cells at 300 nM after 24 hrs; format: cell-based
# [2] = tested on: MIA PaCa-2; assay: Inhibition of ERK phosphorylation in human MIA PaCa-2 cells at 300 nM after 24 hrs; format: cell-based
# [3] = tested on: NCI-H358; assay: Antiproliferative activity against human NCI-H358 cells incubated for 6 days by CCK8 assay; format: functional, cell-based; settings: NCI-H358, 144 h
# [4] = tested on: MIA PaCa-2; assay: Antiproliferative activity against human MIA PaCa-2 cells incubated for 6 days by CCK8 assay; format: functional, cell-based; settings: MIA PaCa-2, 144 h
# [5] = tested on: SW837; assay: (§1) Antiproliferative activity against human SW837 cells incubated for 6 days in presence of 10 uM (2S,4R)-1-((S)-2-(5-((4-(((R)-1-(3-amino-5-(trifluoromethyl)phenyl)ethyl)amino)-7-methoxy-2-methylquinazolin-6-yl)oxy)pentanamido)-3,3-dimethylbutanoyl)-4-hydroxy-N-(4-(4-methylthiazol-5-yl)benzyl)pyrrolidine-2-carboxamide by CCK8 assay; format: functional, cell-based; settings: SW837, 144 h
# [6] = tested on: NCI-H358; assay: as §1, with “NCI-H358” for “SW837”, “1” for “10”; format: functional, cell-based; settings: NCI-H358, 144 h
# [7] = tested on: MIA PaCa-2; assay: Inhibition of ERK phosphorylation in human MIA PaCa-2 cells at 100 nM after 24 to 72 hrs in presence of BI3406 by Western blotting analysis; format: cell-based; settings: time 24-72 hrs
# [8] = tested on: MIA PaCa-2; assay: as §1, with “MIA PaCa-2” for “SW837”; format: functional, cell-based; settings: MIA PaCa-2, 144 h
# [9] = tested on: NCI-H358; assay: Antitumor activity against human NCI-H358 cells xenografted in BALB/c mouse assessed as tumor growth inhibition at 10 mg/kg, ip administered once daily for 28 days; format: functional; settings: NCI-H358, 672 h, time 28 day, read-out: TGI
# [10] = tested on: NCI-H358; assay: Upregulation of SOS1 protein in human NCI-H358 cells; format: functional, cell-based
# [11] = tested on: NCI-H358; assay: Inhibition of RAS pathway in SOS1 knockout human NCI-H358 cells at 100 nM; format: cell-based
# [12] = tested on: NCI-H358; assay: as §1, with “NCI-H358” for “SW837”; format: functional, cell-based; settings: NCI-H358, 144 h
# [13] = Stability in human NCI-H358 cells assessed as compound remaining at 0.2 mM after 72 hrs by HPLC analysis; format: ADME, cell-based; settings: read-out: Stability
# [14] = tested on: MIA PaCa-2; assay: Inhibition of RAS pathway in SOS1 knockout human MIA PaCa-2 cells at 100 nM; format: cell-based
# [15] = tested on: MIA PaCa-2; assay: as §1, with “MIA PaCa-2” for “SW837”, “1” for “10”; format: functional, cell-based; settings: MIA PaCa-2, 144 h
# [16] = tested on: MIA PaCa-2; assay: Upregulation of SOS1 protein in human MIA PaCa-2 cells; format: functional, cell-based
# [17] = tested on: SW837; assay: as §1, with “1” for “10”; format: functional, cell-based; settings: SW837, 144 h
# [18] = tested on: SW837; assay: Antiproliferative activity against human SW837 cells incubated for 6 days by CCK8 assay; format: functional, cell-based; settings: SW837, 144 h
# [19] = Stability in human MIA PaCa-2 cells assessed as compound remaining at 0.2 mM after 72 hrs by HPLC analysis; format: ADME, cell-based; settings: read-out: Stability
smiles,measurement,setting,value
C=CC(=O)N1CCN(c2nc(=O)n(-c3c(C)ccnc3C(C)C)c3nc(-c4c(O)cccc4F)c(F)cc23)[C@@H](C)C1 [SOTORASIB],inhibition,[1],Active
same,inhibition,[2],Active
same,IC50,[3],10 nM
same,IC50,[4],37 nM
same,IC50,[5],2 nM
same,IC50,[6],4 nM
same,inhibition,[7],Active
same,IC50,[8],6 nM
same,inhibition in vivo at 10 mg/kg,[9],34.9%
same,Activity,[10],Active
same,inhibition,[11],Active
same,IC50,[12],1 nM
same,"remaining at 72 h, 200 µM",[13],> 70%
same,inhibition,[14],Active
same,IC50,[15],13 nM
same,Activity,[16],Active
same,IC50,[17],3 nM
same,IC50,[18],9 nM
same,"remaining at 72 h, 200 µM",[19],> 70%
